Patent US11000627B2, “Treatment of implants with phosphonic acid compounds” (Nano Bridging Molecules SA, priority 2016, dated 2021)
Marks after values point to notes of the source that are not given here.

Assay: XPS phosphorus over metal ratio on Titanium grade 4 cylinders
Type: physicochemical
Conditions: 0.7 mM, Metal = Ti2p

Phosphorus/Metal (Phosphonic acid 5 min, sonicated 65° C.): 0.24^b
Phosphorus/Metal (Phosphonic acid 10 min, sonicated 65° C.): 0.28^b
Phosphorus/Metal (Phosphonic acid 30 min, sonicated 65° C.): 0.30^b
Phosphorus/Metal (Phosphonic acid 60 min, sonicated 65° C.): 0.28^b
Phosphorus/Metal (all steps sonicated at 40° C., 15 min): 0.22^b
Phosphorus/Metal (all steps sonicated at 50° C., 15 min): 0.26^b
Phosphorus/Metal (all steps sonicated at 60° C., 15 min): 0.25^b
Phosphorus/Metal (all steps sonicated at 70° C., 15 min): 0.25^b
Phosphorus/Metal (all steps sonicated at 80° C., 15 min): 0.27^b
Phosphorus/Metal (all steps sonicated at 90° C., 15 min): 0.27^b
Phosphorus/Metal (pre-treatment Deconex 15PF-x 5 min, sonicated 65° C. 15 min): 0.36^b
Phosphorus/Metal (pre-treatment Deconex 15PF-x 15 min, sonicated 65° C. 15 min): 0.32^b
Phosphorus/Metal (pre-treatment Deconex 15PF-x 30 min, sonicated 65° C. 15 min): 0.32^b
SMILES: O=P(O)(O)C(CC(P(=O)(O)O)P(=O)(O)O)P(=O)(O)O [1,1,3,3-propane tetraphosphonic acid]
